15 compounds from paper PMC6832141, “Synthesis and Cyclooxygenase Inhibition of Sulfonamide-Substituted (Dihydro)Pyrrolo[3,2,1-hi]indoles and Their Potential Prodrugs” (Molecules, 2019) can be followed below.

A short description of series [1]: Lipophilicity, logD7.4 by HPLC method (Donovan and Pescatore). It is filed as physicochemical. To be noted: HPLC column ODP-50 4B (Shodex Asahipak 50 × 4.6 mm); pH 7.4, HPLC system 2, MeOH/PBS gradient. How it is done:
The lipophilicity of all synthesized compounds was determined as logD7.4HPLC value (Table 1) using an HPLC method originally described by Donovan and Pescatore.
Column chromatography was performed using silica gel (mesh size 40–63 µm). Thin-layer chromatography (TLC) was performed on silica gel F-254 aluminum plates and visualized using UV (254 nm/366 nm). Analytical HPLC analysis was carried out with the following systems: (system 1) Agilent 1200 HPLC (Santa Clara, CA, USA; pump G1311A, autosampler G1329A, column oven G1316A, degasser G1322A, UV detector G1315D, γ detector Gabi Star (Raytest), Luna C18 column (Phenomenex, 250 × 4.6 mm), flow rate = 1 mL/min, isocratic eluent (MeCN/0.1% TFA in H2O 70/30 (v/v)); (system 2) Agilent 1100 HPLC (Santa Clara, CA, USA; binary pump G1312A, autosampler G1313A, column oven G1316A, degasser G1322A, UV detector G1314A, γ detector Gabi Star (Raytest, Straubenhardt, Germany); column ODP-50 4B (Shodex Asahipak 50 × 4.6 mm); eluent: MeOH/PBS (10 mM, pH 7.4) gradient t0 min 30/70 - t25 min 95/5 - t27 min 95/5 - t28 min 30/70 - t40 min 30/70, flow rate = 0.6 mL/min; (system 3) waters UPLC I-Class (Milford, MA, USA; binary gradient pump BSM, autosampler FTN, column manager CM, and diode array detector PDAeλ coupled to Waters Xevo TQ-S), column Aquity UPLC® BEH C18 column (waters, 100 × 2.1 mm, 1.7 µm, 130 Å), eluent: (A): 0.1% acetic acid in MeCN/MeOH 1/1/(B): 0.1% acetic acid in H2O; flow rate 0.4 mL/min), gradient: t0 min 45/55 - t0.5 min 45/55 - t5.5 min 95/5 - t7.0 min 95/5 - t8.0 min 45/55 – t8.5 min 45/55; (system 4) column (Kinetex C-18 (Phenomenex 50 × 2.1 mm, 1.7 µm, 100 Å), Shimadzu Nexera X2 UHPLC system (Kyoto, Japan; degasser DGU-20A3R and DGU-20A5R, pump LC-30AD, autosampler SIL-30AC, column oven CTO-20AC with two column switching valves FCV-14AH, diode array detector SPD-M30A, γ detector Gabi Star (Raytest, Straubenhardt, Germany), communication bus module CBM-20A), eluent: (A): MeCN, (B): 0.1% trifluoroacetic acid in H2O; flow rate 0.5 mL/min), gradient: t0 min 25/75 - t0.3 min 25/75 - t4.0 min 75/25 - t4.5 min 95/5 - t5.5 min 95/5 - t6.0 min 25/75 – t7.5 min 25/75. The products were monitored by an UV detector at 254 nm and purity of all compounds exceeded 95% as determined by analytical HPLC analysis (system 1 or system 3), unless otherwise stated. Semi-preparative HPLC was performed using the following system: column (C-18 Jupiter Proteo (Phenomenex 250 × 21.1 mm, 4 µm, 90 Å), Shimadzu prominence modular HPLC system (Kyoto, Japan; degasser DGU-20A5R, 2× pump LC-20AR, autosampler SIL-20AC HT, column oven CTO-20AC with column switching valve, diode array detector SPD-M20A, fluorescence detector RF-20A, and fraction collector FRC-10A, communication bus module CBM-20A), isocratic eluent 0.1% TFA in MeCN/0.1% TFA in H2O 70/30, flow rate = 10 mL/min.
The logD7.4HPLC value was determined as previously reported by us utilizing an HPLC method originally described by Donovan and Pescatore[18]. […]

Series [2] has as its target T1, ovine COX-1 (Ovis aries, UniProt P05979).
T1 construct: purchased Cayman Chemical 700100
T1 sequence (P05979 25-600): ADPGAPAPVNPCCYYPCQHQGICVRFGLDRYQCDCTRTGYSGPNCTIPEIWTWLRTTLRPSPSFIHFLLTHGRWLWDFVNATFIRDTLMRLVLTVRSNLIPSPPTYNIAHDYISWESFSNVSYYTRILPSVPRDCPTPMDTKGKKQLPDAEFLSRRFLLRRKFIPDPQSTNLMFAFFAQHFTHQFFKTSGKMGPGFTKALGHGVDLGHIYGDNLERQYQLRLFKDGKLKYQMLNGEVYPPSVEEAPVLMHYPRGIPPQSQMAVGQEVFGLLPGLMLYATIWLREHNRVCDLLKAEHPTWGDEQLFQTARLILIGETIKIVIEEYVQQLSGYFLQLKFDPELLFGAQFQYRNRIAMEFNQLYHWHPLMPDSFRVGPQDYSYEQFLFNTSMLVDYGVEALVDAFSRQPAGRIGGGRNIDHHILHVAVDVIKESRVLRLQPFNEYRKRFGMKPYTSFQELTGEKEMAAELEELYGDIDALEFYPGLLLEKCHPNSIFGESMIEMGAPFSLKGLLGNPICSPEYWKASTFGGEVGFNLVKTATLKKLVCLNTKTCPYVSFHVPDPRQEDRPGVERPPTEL
The experiment in a line: COX Fluorescent Inhibitor Screening Assay Kit (Cayman 700100), COX-1. To be noted: values marked ** : compounds were screened at a concentration of 100 µM. It counts as biochemical.

Series [3] deals with T2, human COX-2 (Homo sapiens, UniProt P35354).
T2 construct: purchased Cayman Chemical 700100
T2 sequence (P35354 18-604): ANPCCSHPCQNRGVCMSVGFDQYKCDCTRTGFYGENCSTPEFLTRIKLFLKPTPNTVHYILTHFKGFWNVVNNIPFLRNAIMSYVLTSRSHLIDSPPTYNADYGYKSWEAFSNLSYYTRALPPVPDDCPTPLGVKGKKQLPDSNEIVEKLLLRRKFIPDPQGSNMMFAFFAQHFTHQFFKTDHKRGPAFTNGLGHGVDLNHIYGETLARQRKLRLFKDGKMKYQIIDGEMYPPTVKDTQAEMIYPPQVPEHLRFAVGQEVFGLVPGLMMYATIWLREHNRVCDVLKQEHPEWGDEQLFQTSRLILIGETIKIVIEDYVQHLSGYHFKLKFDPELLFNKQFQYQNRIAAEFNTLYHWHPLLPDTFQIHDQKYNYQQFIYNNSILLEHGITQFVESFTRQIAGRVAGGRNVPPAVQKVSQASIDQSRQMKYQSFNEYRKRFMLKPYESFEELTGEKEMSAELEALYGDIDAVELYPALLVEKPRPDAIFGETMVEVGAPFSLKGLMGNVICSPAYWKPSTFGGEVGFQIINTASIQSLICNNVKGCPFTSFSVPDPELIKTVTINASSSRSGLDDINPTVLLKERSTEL
Nature of the series: COX Fluorescent Inhibitor Screening Assay Kit (Cayman 700100), COX-2. It counts as biochemical. Particulars: for SI (selectivity index): SI = IC50 (COX-1)/IC50 (COX-2); for IC50: human COX-2, values marked ** : compounds were screened at a concentration of 100 µM.

Some results are limits rather than exact numbers.

The term chromatographic logD denotes lipophilicity estimated from chromatographic retention. Read a high chromatographic logD as higher lipophilicity. The term IC50 denotes the concentration at which inhibition is half-maximal. Lower therefore signals greater potency in that assay. What is called melting point is the temperature, or range, at which the solid turns liquid. As to `NS(=O)(=O)c1ccc(-c2c(-c3ccc(Cl)cc3)c3cccc4ccn2c43)cc1` [2c, 1-(4-Chlorophenyl)-2-[4-(sulfamoyl)phenyl]pyrrolo[3,2,1-hi]indole], the melting point was in the range of 270 to 273 °C. The chromatographic logD in series [1] worked out at 4.89. Also, the half-inhibitory concentration (IC50) in series [2] is greater than 100 µM. Moreover, in series [3], the “SI (selectivity index)” value is on record as greater than 1136 and the IC50 came to 0.088 µM.

For `NS(=O)(=O)c1ccc(-c2c(-c3ccc(F)cc3)c3cccc4c3n2CC4)cc1` [1d, 5-(4-Fluorophenyl)-4-[4-(sulfamoyl)phenyl]-1,2-dihydropyrrolo[3,2,1-hi]indole], the chromatographic logD in series [1] stood at 4.53. In series [2], this compound registered an IC50 of 7.8 µM. Besides, in series [3], the “SI (selectivity index)” value came out at 85 and it took 0.092 µM to reach half-maximal inhibition (IC50).

In turn, `NS(=O)(=O)c1ccc(-c2c(-c3ccccc3)c3cccc4ccn2c43)cc1` [2a, 1-Phenyl-2-[4-(sulfamoyl)phenyl]pyrrolo[3,2,1-hi]indole] registered a melting point of 218 to 220 °C. Also, the chromatographic logD in series [1] is 4.59. The same compound yielded an IC50 in series [2] greater than 100 µM. In series [3], the “SI (selectivity index)” value was greater than 1887 and the midpoint of inhibition, the IC50, lay at 0.053 µM.

For the compound `NS(=O)(=O)c1ccc(-c2c(-c3ccccc3)c3cccc4c3n2CC4)cc1` [1a, 5-Phenyl-4-[4-(sulfamoyl)phenyl]-1,2-dihydropyrrolo[3,2,1-hi]indole], the chromatographic logD in series [1] is 4.44. The compound also yielded an IC50 in series [2] of 38 µM. Further, in series [3], the “SI (selectivity index)” value turned out to be 355 and it took 0.107 µM to reach half-maximal inhibition (IC50).

As for `CCC(=O)NS(=O)(=O)c1ccc(-c2c(-c3ccc(F)cc3)c3cccc4ccn2c43)cc1` [4d, N-({4-[1-(4-fluorophenyl)pyrrolo[3,2,1-hi]indol-2-yl]phenyl}sulfonyl)propionamide], the chromatographic logD in series [1] came out at 2.3. In series [2], this compound returned an IC50 greater than 100 µM. In addition, in series [3], the “SI (selectivity index)” value is reported as greater than 3.8 and 26.5 µM corresponded to half-maximal inhibition (IC50).

In series [1], `CCC(=O)NS(=O)(=O)c1ccc(-c2c(-c3ccc(C)cc3)c3cccc4ccn2c43)cc1` [4b, N-({4-[1-(p-tolyl)pyrrolo[3,2,1-hi]indol-2-yl]phenyl}sulfonyl)propionamide] gave a chromatographic logD of 2.48. The same compound came in with an IC50 in series [2] greater than 100 µM. Moreover, in series [3], the “SI (selectivity index)” value is greater than 2.9 and the IC50 came to 33.9 µM.

Turning to `CCC(=O)NS(=O)(=O)c1ccc(-c2c(-c3ccccc3)c3cccc4ccn2c43)cc1` [4a, N-{[4-(1-phenylpyrrolo[3,2,1-hi]indol-2-yl)phenyl]sulfonyl}propionamide], in series [1], the chromatographic logD is 2.24.

In turn, `CCC(=O)NS(=O)(=O)c1ccc(-c2c(-c3ccc(Cl)cc3)c3cccc4c3n2CC4)cc1` [3c, N-({4-[5-(4-chlorophenyl)-1,2-dihydropyrrolo[3,2,1-hi]indol-4-yl]phenyl}sulfonyl)propionamide] registered a chromatographic logD in series [1] of 2.49. The values for the IC50 in series [2] and in series [3] were greater than 100 µM and 26.4 µM, respectively. For the same compound, in series [3], the “SI (selectivity index)” value was greater than 3.8.

Take `CCC(=O)NS(=O)(=O)c1ccc(-c2c(-c3ccc(C)cc3)c3cccc4c3n2CC4)cc1` [3b, N-({4-[5-(p-tolyl)-1,2-dihydropyrrolo[3,2,1-hi]indol-4-yl]phenyl}sulfonyl)propionamide]: the chromatographic logD in series [1] was 2.31. Further, the IC50 in series [2] and in series [3] was greater than 100 µM each time.

Consider `NS(=O)(=O)c1ccc(-c2c(-c3ccc(F)cc3)c3cccc4ccn2c43)cc1` [2d, 1-(4-Fluorophenyl)-2-[4-(sulfamoyl)phenyl]pyrrolo[3,2,1-hi]indole], for which the melting point was 258 to 259 °C. In series [1], this compound registered a chromatographic logD of 4.64. The IC50 in series [2] was greater than 100 µM. Besides, in series [3], the “SI (selectivity index)” value is listed as greater than 1124 and the IC50 came to 0.089 µM.

In turn, `CCC(=O)NS(=O)(=O)c1ccc(-c2c(-c3ccc(F)cc3)c3cccc4c3n2CC4)cc1` [3d, N-({4-[5-(4-fluorophenyl)-1,2-dihydropyrrolo[3,2,1-hi]indol-4-yl]phenyl}sulfonyl)propionamide] returned a chromatographic logD in series [1] of 2.2. Also, the IC50 in series [2] and in series [3] was greater than 100 µM each time.

In turn, `CCC(=O)NS(=O)(=O)c1ccc(-c2c(-c3ccccc3)c3cccc4c3n2CC4)cc1` [3a, N-{[4-(5-phenyl-1,2-dihydropyrrolo[3,2,1-hi]indol-4-yl)phenyl]sulfonyl}propionamide] came in with a chromatographic logD in series [1] of 2.05. Moreover, the IC50 in series [2] and in series [3] was greater than 100 µM each time.

With `NS(=O)(=O)c1ccc(-c2c(-c3ccc(Cl)cc3)c3cccc4c3n2CC4)cc1` [1c, 5-(4-Chlorophenyl)-4-[4-(sulfamoyl)phenyl]-1,2-dihydropyrrolo[3,2,1-hi]indole], the chromatographic logD in series [1] turned out to be 4.9. Moreover, the IC50 stood at 15.3 µM in series [2] and 0.106 µM in series [3]. The “SI (selectivity index)” value in series [3] is 144.

Turning to `CCC(=O)NS(=O)(=O)c1ccc(-c2c(-c3ccc(Cl)cc3)c3cccc4ccn2c43)cc1` [4c, N-({4-[1-(4-chlorophenyl)pyrrolo[3,2,1-hi]indol-2-yl]phenyl}sulfonyl)propionamide], in series [1], the chromatographic logD was 2.6. For the same compound, the IC50 in series [2] is greater than 100 µM. In addition, in series [3], the “SI (selectivity index)” value is greater than 9.1 and the IC50 is 11 µM.

With `Cc1ccc(-c2c(-c3ccc(S(N)(=O)=O)cc3)n3c4c(cccc24)CC3)cc1` [1b, 4-[4-(Sulfamoyl)phenyl]-5-(p-tolyl)-1,2-dihydropyrrolo[3,2,1-hi]indole], the chromatographic logD in series [1] was 4.56. Besides, the results for the IC50 in series [2] and in series [3] were 59.9 µM and 0.253 µM, respectively. Further, in series [3], the “SI (selectivity index)” value stood at 237.
